Source: patent US11059843B2, “Stevioside M crystal form, preparation method therefor and use thereof” (ZHUCHENG HAOTIAN PHARM CO., LTD., priority 2017, dated 2021)

Legend:
[1] = Dynamic moisture adsorption (DVS) hygroscopicity; type: physicochemical; conditions: for hygroscopic mass change (0%-40% RH) / hygroscopicity: water absorption at 40% RH / hygroscopic mass change (40%-80% RH) / hygroscopicity: water absorption at 80% RH: DVS, 25° C.
Method: DVS analysis: It was measured using DVS Intrinsic type dynamic moisture adsorption instrument from British SMS instrument company, measuring temperature: 25° C.; relative humidity: 0-95%.

[2] = Crystal form stability by XRPD after drying at 105° C. for one day; type: physicochemical
Method: (§1) X-ray powder diffraction analysis (XRPD), differential scanning calorimetry analysis (DSC), thermogravimetric analysis (TG), dynamic moisture adsorption analysis (DVS) and the like were made for the crystal form A of stevioside M prepared in the above examples. XRPD analysis: It was tested at room temperature using a Bruker D8 advance type diffractometer from Bruker Instruments, Germany, Cu-Kα ray (λ=1.5418 Å) was used, the 2θ angle was scanned from 3 to 40 degrees, and the scanning speed was 0.2 degrees/second.
The crystal form A of stevioside M prepared in the above examples was subjected to XRPD analysis after drying at 105° C. for one day, and the analysis results are shown in FIG. 7. It can be seen from FIG. 7 that the crystal form is unchanged, and the crystal form has good stability under high temperature conditions. The crystal form B of stevioside M is extremely unstable under high temperature conditions, and which is amorphous after drying for one day at 105° C., and the analysis results are shown in FIG. 8.

[3] = water at room temperature, stevioside M content of 75% to 90%; cited from earlier work
[4] = Chemical stability by HPLC after storage at 40° C. and RH 75% for half a year; type: physicochemical
Method: HPLC analysis: It was determined using a 1260 infinity liquid chromatograph from Agilent Technologies, Inc., USA. Sample solution preparation method: 25-50 mg of stevioside M sample was accurately weighed, and added into a 25 ml volumetric flask, then water-acetonitrile (7:3, v/v) solution was added, dissolved to volume. Preparation method of sodium phosphate buffer (specification: 10 mmol/L, pH: 2.6): dissolving 2.76 g of sodium dihydrogen phosphate into 2 liters of water, adding phosphoric acid, and the pH was adjusted to 2.6. Chromatographic column: Luna 5μ C18(2) 100 A column from Phenomenex. Injection volume: 5 μl. Flow rate: 1.0 mL/min. Column temperature: 40° C. Detector: UV detection at 210 nm. The elution gradient is shown as follows: […]

[5] = Water solubility / powder dissolution profile; type: physicochemical
Method: The crystal form A of stevioside M prepared in the above examples has good reproducibility and is stable in water solubility, and has a maximum solubility of about 3 mg/mL, and the equilibrium solubility is about 2 mg/mL at 24 hours. The powder dissolution profiles of the two batches of crystal form A of stevioside M prepared by the examples are shown in FIG. 11. The water solubility of crystal form A is similar to that of the stevioside D-stevioside M amorphous composition (about 3 mg/mL) disclosed in Patent CN 105722533 A, and both of which can stably increase the water solubility by 2-3 times.

[6] = Physical stability of crystal form on storage at 25° C. and RH 60% for half a year (XRPD); type: physicochemical
Method: as §1
The crystal form A of stevioside M prepared in the above examples was stored at 25° C. and RH 60% for half a year, and the analysis results are shown in FIG. 9.

Row | SMILES | hygroscopic mass change (0%-40% RH) [1] [%] | hygroscopicity: water absorption at 40% RH [1] | hygroscopic mass change (40%-80% RH) ([1]; 40%-80% RH) [%] | hygroscopicity: water absorption at 80% RH [1] | crystal form after drying (XRPD) [2] | solubility in water [3] | hygroscopicity compared with the amorphous form and crystal form B ([1]; 25° C. and 40% RH) | hygroscopicity compared with amorphism under normal storage ([1]; 40%-80% RH) | mass percentage of moisture absorption within a relative humidity of 0-40% ([1]; dynamic moisture adsorption profile FIG. 4, RH 0-40%) | mass percentage of moisture absorption within a relative humidity of 40-80% ([1]; dynamic moisture adsorption profile FIG. 4, RH 40-80%) | reduction of content (HPLC) after storage [4] | equilibrium solubility in water ([5]; at 24 hours) | maximum solubility in water ([5]; powder dissolution) | crystal form after storage (XRPD) [6]
1 | C=C1C[C@@]23CCC4[C@](C)(C(=O)OC5OC(CO)C(O)C(OC6OC(CO)C(O)C(O)C6O)C5OC5OC(CO)C(O)C(O)C5O)CCC[C@@]4(C)[C@@H]2CCC1(OC1OC(CO)C(O)C(OC2OC(CO)C(O)C(O)C2O)C1OC1OC(CO)C(O)C(O)C1O)C3 (stereo partly drawn) [amorphism of stevioside M, 13-[(2-O-β-D-pyranoglucosyl-3-O-β-D-pyranoglucosyl-β-D-pyranoglucosyl)oxyl]-ent-kauran-16-en-19-oic acid-[(2-O-β-D-pyranoglucosyl-3-O-β-D-pyranoglucosyl-β-D-pyranoglucosyl) ester], reference compound] | 11.0 | 40% RH, 11.0% of | 8.2 | 80% RH, 19.2% of |  |  |  |  |  |  |  |  |  | 
2 | C=C1C[C@@]23CCC4[C@](C)(C(=O)OC5OC(CO)C(O)C(OC6OC(CO)C(O)C(O)C6O)C5OC5OC(CO)C(O)C(O)C5O)CCC[C@@]4(C)[C@@H]2CCC1(OC1OC(CO)C(O)C(OC2OC(CO)C(O)C(O)C2O)C1OC1OC(CO)C(O)C(O)C1O)C3 (stereo partly drawn) [crystal form B of stevioside M, 13-[(2-O-β-D-pyranoglucosyl-3-O-β-D-pyranoglucosyl-β-D-pyranoglucosyl)oxyl]-ent-kauran-16-en-19-oic acid-[(2-O-β-D-pyranoglucosyl-3-O-β-D-pyranoglucosyl-β-D-pyranoglucosyl) ester]] | 15.3 | 40% RH, 15.3% of | 2.1 | 80% RH, 17.4% of | amorphous |  |  |  |  |  |  |  |  | 
3 | C=C1C[C@@]23CCC4[C@](C)(C(=O)OC5OC(CO)C(O)C(OC6OC(CO)C(O)C(O)C6O)C5OC5OC(CO)C(O)C(O)C5O)CCC[C@@]4(C)[C@@H]2CCC1(OC1OC(CO)C(O)C(OC2OC(CO)C(O)C(O)C2O)C1OC1OC(CO)C(O)C(O)C1O)C3 (stereo partly drawn) [stevioside M, 13-[(2-O-β-D-pyranoglucosyl-3-O-β-D-pyranoglucosyl-β-D-pyranoglucosyl)oxyl]-ent-kauran-16-en-19-oic acid-[(2-O-β-D-pyranoglucosyl-3-O-β-D-pyranoglucosyl-β-D-pyranoglucosyl) ester]] |  |  |  |  |  | 0.1% to 0.15 |  |  |  |  |  |  |  | 
4 | C=C1C[C@@]23CCC4[C@](C)(C(=O)OC5OC(CO)C(O)C(OC6OC(CO)C(O)C(O)C6O)C5OC5OC(CO)C(O)C(O)C5O)CCC[C@@]4(C)[C@@H]2CCC1(OC1OC(CO)C(O)C(OC2OC(CO)C(O)C(O)C2O)C1OC1OC(CO)C(O)C(O)C1O)C3 (stereo partly drawn) [crystal form A of stevioside M, 13-[(2-O-β-D-pyranoglucosyl-3-O-β-D-pyranoglucosyl-β-D-pyranoglucosyl)oxyl]-ent-kauran-16-en-19-oic acid-[(2-O-β-D-pyranoglucosyl-3-O-β-D-pyranoglucosyl-β-D-pyranoglucosyl) ester]] | 9.4 | 40% RH, 9.4% of | 4.6 | 80% RH, 14.0% of | unchanged |  | significantly less hygroscopic | less hygroscopic than amorphism | 0-9.4% | 9.4-14.0% | less than 0.2% | about 2 mg/mL | about 3 mg/mL | unchanged
